In US12161641B2, “Treatments and prevention of opioid neonatal abstinence syndrome” (Ohio State Innovation Foundation, priority 2016, dated 2024):

Key:
[1] = Cumulative injections of 6β-naltrexol: tissue levels, 1 versus 4 injections; type: in vivo, mice
Protocol: While 6β-naltrexol is relatively excluded from adult brain, it might accumulate slowly upon multiple dosing because of slow exit from the brain. Therefore, experiments were conducted to determine whether 6β-naltrexol accumulates in tissues over time after chronic delivery, and especially through retention in adult brain. After 4 injections of 6β-naltrexol over a 24 hr period (every 6 hrs), 6β-naltrexol levels were measured in fetal and maternal tissues 4 hrs after the last dose, and accumulation assessed in comparison to a single injection with a 4 hr survival. […] However, this was not significant (p>0.2). Also, 6β-naltrexol trended towards greater accumulation in liver than brain (p=0.084 for comparison of adult liver vs adult brain after 4 injections). Likewise, 6β-naltrexol trended towards greater accumulation in embryos than adults (p=0.063 for comparison of fetal vs adult brain after 4 injections).

pre-weaning age mice = assay: Naloxone-induced withdrawal jumping after morphine dosing in early postnatal mice; type: in vivo
Protocol: Animals were injected with morphine alone or morphine mixed with increasing amounts of 6β-naltrexol. Injections were started on postnatal day 12 (PD12) and continued for 5 days. On days 1-3 morphine was injected at 10 mg/kg, and at 20 mg/kg on days 4 and 5. On day 6 (PD18) a final injection of 20 mg/kg was made, and 3 hours later mice were injected with 30 mg/kg naloxone to induce withdrawal. All injections were subcutaneous. When Morphine was co-injected with 6β-naltrexol the latter was held at a constant ratio when the Morphine dose was increased on days 4-6. Because of the changing Morphine dosages the 6β-naltrexol dose is reported as a ratio relative to Morphine, or as a dose range. Immediately upon injection with naloxone mice were placed in a clear plastic container with a 6 inch square base and 10 inches tall, with a lid. Withdrawal jumping was videotaped and jumps were scored in a 15 minute interval.
Summary data are presented as means+1 SEM unless otherwise indicated Continuous data (drug concentrations) were analyzed using one-way ANOVA and post hoc comparisons were made using either Dunnett's procedure (for one-to-many comparisons) or t-tests (for all-pairs contrasts). In the latter case, p-values were adjusted for multiple comparisons using Hommel's method (Hommel, G. (1988) Biometrika 75:383-386). Data were log transformed to account for heteroscedasticity. When ratio values such as the brain/plasma ratio were compared, these were log-transformed before analysis to account for the constrained structure of ratio variables (e.g., Heslop, D. (2009) Geophys. J. Int. 178:159-161; Schilling K, et al. (2012) J Neurosci. 32:12651-12656). The dependence of jumping behavior on 6β-naltrexol levels was modelled using a 4-parametric log-normal curve taking into account that the response was a count variable. AUCs were integrated over the time span analyzed (i.e., from 0 to 240 min; Wolfsegger, M J, et al. (2009) J Pharmacokinet Pharmacodyn 36:479-494). Confidence intervals for AUCs were obtained by bootstrapping, as recommended in Jaki & Wolfsegger (Jaki, T, et al (2009) Pharmaceutical Statistics 8:12-24). All statistical procedures were implemented in R (R Core Team, 2015), using the packages multcomp (Hothorn, T, et al. (2008) Biometrical Journal 50:346-363) for multiple comparisons, PK (Jaki, T, et al. (2011) Pharmaceutical Statistics 10:284-288) for pharmacokinetic analyses, and drc (Ritz, C, et al. (2005) Bioassay analysis using R. J. Stat. Softw. 12:22) for dose-response fitting.
Considering that 6β-naltrexol continues to penetrate the brain at high levels prior to PD20 experiments were conducted to determine whether concomitant administration of 6β-naltrexol reduces withdrawal behaviors in pre-weaning age mice. A morphine dosing schedule was adapted based on studies in early postnatal rats and adult mice (Kest B. et al. (2002) Neuroscience 115:463-469; Jones, K L, et al. (1995) Behav. Neurosci. 109:1189-1198). Mice were injected with morphine alone, with morphine in combination with increasing concentrations of 6β-naltrexol, or saline alone, starting at P12 and continuing for 6 days. Withdrawal was then induced with an injection of naloxone. There was robust jumping characteristic of adult withdrawal behavior (Kest B, et al. (2002) Neuroscience 115.463-469), but not previously reported for pre-weaning mice or rats to our knowledge. […] At the highest dose tested, 0.5-1.0 mg/kg (= 1/20th that of morphine), withdrawal jumping is 94% reduced. The lowest 6β-naltrexol dose tested, 0.0033-0.0066 mg/kg (= 1/3000th that of morphine) caused a 20% decrease in jumping. There is also a time component to the effect of 6β-naltrexol on jumping behavior (FIG. 3B). As 6β-naltrexol levels were increased the jumps observed in a 15 minute testing bout were increasingly delayed. […]

[2] = Time-course of drug levels in adult and embryonic mouse plasma, brain and liver after a single subcutaneous injection (LC-MS/MS); settings: for 6β-naltrexol level, Embryo Brain / 6β-naltrexol level, Embryo Liver: dam 10 mg/kg subcutaneously
[3] = 20 min survival, 10 mg/kg subcutaneously
[4] = 45 min survival, 10 mg/kg subcutaneously
[5] = 2 hrs survival, 10 mg/kg subcutaneously
[6] = 4 hrs survival, 10 mg/kg subcutaneously
[7] = non-compartmental, 0 to 240 min, 10 mg/kg subcutaneously

In the case of `Oc1ccc2c3c1O[C@H]1[C@H](O)CC[C@@]4(O)[C@@H](C2)N(CC2CC2)CC[C@]314` [6β-naltrexol], the “increase of 6β-naltrexol after cumulative injections, average for all tissues” value ([1]; 4 injections over 24 hr vs single injection, 4 hr survival, not significant (p>0.2)) is reported as about 1.5 fold, the “6β-naltrexol level, Adult Brain, 1 injection” value ([1]; adult brain, 1 injection of 10 mg/kg, 4 hr survival) is reported as 110 and the “6β-naltrexol level, Adult Brain, 4 injections in 24 hrs” value ([1]; adult brain, 4 injections of 10 mg/kg in 24 hrs, 4 hr survival after last dose) is reported as 160. The “6β-naltrexol level, Adult Liver, 1 injection” value ([1]; adult liver, 1 injection of 10 mg/kg, 4 hr survival) was 280, the “6β-naltrexol level, Adult Liver, 4 injections in 24 hrs” value ([1]; adult liver, 4 injections of 10 mg/kg in 24 hrs, 4 hr survival after last dose) was 360 and the “6β-naltrexol level, Embryo Brain, 1 injection” value ([1]; embryo brain, 1 injection of 10 mg/kg, 4 hr survival) was 210. For the same molecule, the “6β-naltrexol level, Embryo Brain, 4 injections in 24 hrs” value ([1]; embryo brain, 4 injections of 10 mg/kg in 24 hrs, 4 hr survival after last dose) was 290, the “6β-naltrexol level, Embryo Liver, 1 injection” value ([1]; embryo liver, 1 injection of 10 mg/kg, 4 hr survival) was 250 and the “6β-naltrexol level, Embryo Liver, 4 injections in 24 hrs” value ([1]; embryo liver, 4 injections of 10 mg/kg in 24 hrs, 4 hr survival after last dose) was 500. For the same molecule, the “6β-naltrexol level, Plasma, 1 injection” value ([1]; plasma, 1 injection of 10 mg/kg, 4 hr survival) was 40, the “6β-naltrexol level, Plasma, 4 injections in 24 hrs” value ([1]; plasma, 4 injections of 10 mg/kg in 24 hrs, 4 hr survival after last dose) was 60 and the “total jumps in the first three time bins (up to 4.5 mins)” value (pre-weaning age mice; 0.0033 mg/kg, 73+28 with no 6β-naltrexol, p=0.07) was 37+29 jumps. For the same molecule, the latency-to-first-jump (pre-weaning age mice; 0.01-0.02 mg/kg (1/1000th the dose of morphine)) was 118+31 sec, the latency-to-first-jump (pre-weaning age mice; 0.05-0.1 mg/kg (1/200th the dose of morphine)) was 163+46 sec and the Survival (pre-weaning age mice; all conditions and all animals tested by this procedure) was 100%. The “inhibitory dose 50 (ID50), withdrawal jumping” value (pre-weaning age mice; co-injected with morphine 10-20 mg/kg s.c. PD12-PD18, naloxone 30 mg/kg, jumps in 15 minutes) was 0.022 to 0.044 mg/kg, the withdrawal jumping reduced (pre-weaning age mice; highest dose tested, 0.5-1.0 mg/kg (1/20th that of morphine)) was 94% and the latency-to-first-jump (pre-weaning age mice; lowest dose (1/3000th the dose of morphine), 38+8 sec with no 6β-naltrexol) was 128+44 sec. For the same molecule, the decrease in jumping (pre-weaning age mice; lowest dose tested, 0.0033-0.0066 mg/kg (1/3000th that of morphine)) was 20%, the “ID50 dose lower than the morphine dose used for inducing dependence” value (pre-weaning age mice; mouse, in vivo) was about 500 fold and the “ID50 relative to the morphine dose” value (pre-weaning age mice; ratio of 6β-naltrexol to morphine) was 1/450. The “fetal brain KP ratio” value ([2]; 20 min after injection) was “not significantly different from unity”, the “adult brain KP ratio (brain:plasma)” value ([2]; 20 min survival) was 0.13 and the “fetal brain:maternal plasma KP ratio” value ([2]; 45 min after drug injection) was 2.7. The “adult brain KP ratio (brain:plasma)” value ([2]; 45 minutes survival) was 0.34, the “fetal brain:maternal plasma KP ratio” value ([2]; 120 min after injection) was 15.7 and the “brain KP ratio based on AUC's (adult)” value ([2]; AUC's integrated over 4 hrs) was 0.58. The “KP ratio based on AUC's, adult liver” value ([2]; AUC-based) was 2.6, the “KP ratio based on AUC's, fetal liver” value ([2]; AUC-based) was 4.3 and the “fetal brain KP ratio based on non-compartmental AUC's” value ([2]; AUC-based) was 3.6. For the same molecule, the “6β-naltrexol level, Adult Brain” value [2, 3] was 260 ng/g, the “6β-naltrexol level, Adult Brain” value [2, 4] was 310 ng/g and the “6β-naltrexol level, Adult Brain” value [2, 5] was 230 ng/g. The “6β-naltrexol level, Adult Brain” value [2, 6] was 110 ng/g, the “6β-naltrexol level, Adult Liver” value [2, 3] was 3570 ng/g and the “6β-naltrexol level, Adult Liver” value [2, 4] was 3200 ng/g. For the same molecule, the “6β-naltrexol level, Adult Liver” value [2, 5] was 530 ng/g, the “6β-naltrexol level, Adult Liver” value [2, 6] was 280 ng/g and the “embryonic brain levels higher than in adult brain, at peak” value ([2]; at peak, 10 mg/kg subcutaneously) was about 9 fold. The “6β-naltrexol level, Embryo Brain” value ([2]; 20 min survival) was 1350 ng/g, the “6β-naltrexol level, Embryo Brain” value ([2]; 45 min survival) was 2780 ng/g and the “6β-naltrexol level, Embryo Brain” value ([2]; 2 hrs survival) was 1370 ng/g. The “6β-naltrexol level, Embryo Brain” value ([2]; 4 hrs survival) was 210 ng/g, the “6β-naltrexol level, Embryo Liver” value ([2]; 20 min survival) was 2970 ng/g and the “6β-naltrexol level, Embryo Liver” value ([2]; 45 min survival) was 4400 ng/g. For the same molecule, the “6β-naltrexol level, Embryo Liver” value ([2]; 2 hrs survival) was 1040 ng/g, the “6β-naltrexol level, Embryo Liver” value ([2]; 4 hrs survival) was 250 ng/g and the “AUC for embryonic brain greater than that of adult brain” value ([2]; non-compartmental, 0 to 240 min) was 6 fold. The “area under the curve (AUC), (maternal) plasma” value [2, 7] was 83+6×10^3 ng/ml-min, the “area under the curve (AUC), adult brain” value [2, 7] was 49+2×10^3 ng/ml-min and the “area under the curve (AUC), adult liver” value [2, 7] was 274+36×10^3 ng/ml-min. For the same molecule, the “area under the curve (AUC), embryonic (fetal) brain” value [2, 7] was 302+60×10^3 ng/ml-min, the “area under the curve (AUC), embryonic liver” value [2, 7] was 373+84 and the “6β-naltrexol level, Plasma” value [2, 3] was 2060 ng/g. For the same molecule, the “6β-naltrexol level, Plasma” value [2, 4] was 930 ng/g, the “6β-naltrexol level, Plasma” value [2, 5] was 90 ng/g and the “6β-naltrexol level, Plasma” value [2, 6] was 40 ng/g.
